Test results as given in patent US8980874B2, “Method and composition for treating diabetic ketoacidosis” (Midwestern University, priority 2009, dated 2015).
Entries after “also recorded” stand apart in the source; their conditions may differ. Where a name gives a salt, the structure may show the parent alone.

What was measured:
Type in all cases: in vivo
rat model of DKA [1] = test: Blood glucose in streptozotocin-induced diabetic ketoacidosis rats
Protocol: Normotensive Sprague Dawley rats were kept on fasting for 2 hours with unlimited access to water. After 2 hours of fasting, rats were injected intraperitoneally with 150 mg/kg of streptozotocin in 0.05 mol/L citric acid, pH 4.3 to induced diabetes (Lam et al., 2005; Yuen et al., 2008), while non-diabetic control rats received an intraperitoneal injection of 0.05 mol/L citrate buffer (Lam et al., 2005; Yuen et al., 2008). Rats were allowed unlimited access to tap water and food. Each day rats were weighed and urine ketone levels were estimated by Urine Reagent Strips, 1K Parameter. Prior to streptozotocin or citrate buffer injection, baseline blood glucose levels were assessed by One Touch Ultra blood glucose strips from Lifescan, Milpitas, Calif., and baseline blood ketone levels were estimated using Cardiochek blood ketone analyzer. Blood glucose and ketone were measured again on day three and four to ensure the onset of hyperglycemia and ketoacidosis. […] Blood samples were withdrawn from the femoral […] for baseline reading prior to start of treatment, after the first hour of treatment, and then at the end of the treatment (fifth hour of experiment).
The animals were allowed to stabilize for at least 20 minutes following surgical procedures. Body weight, blood glucose, urinary ketone, blood ketone, arterial blood gases, blood electrolytes, mean arterial pressure, pulse pressure, heart rate, brain blood perfusion, brain and lung water content were determined in the following groups
(§1) Group 4: Diabetic saline/insulin treated (D-Saline+insulin treated): Rats were injected with streptozotocin in citrate buffer (150 mg/kg ip) to induce diabetes and ketoacidosis. On day three, rats were treated with 1.5 U/kg regular insulin (Humulin® R (Regular human insulin, rDNA origin). On day four, saline and insulin treatment was carried out. Rats were infused via cannulated femoral vein saline, 0.9% NaCl at 80 mL/kg/hr and 1.5 U/kg/hr regular insulin for one hour. During the next two through four hours, rats were infused with saline, 0.9% NaCl at 40 mL/kg/hr and 1.5 U/kg/hr regular insulin (Yuen et al., 2008).
(§2) Group 5: Diabetic BMS-182874/saline/insulin treated (D-BMS+Saline+insulin treated): Rats were injected with streptozotocin in citrate buffer (150 mg/kg ip) to induce diabetes and ketoacidosis. On day three, rats were treated with 1.5 U/kg regular insulin. On day four, rats were administered a bolus dose of selective ETA receptor antagonist, BMS-182874 (9 mg/kg), then saline and insulin treatment was carried out. Rats were infused via cannulated femoral vein saline, 0.9% NaCl at 80 mL/kg/hr and 1.5 U/kg/hr regular insulin for one hour. During the next two through four hours rats were infused with saline, 0.9% NaCl at 40 mL/kg/hr and 1.5 U/kg/hr regular insulin.
(§3) Group 6: Diabetic BQ123/saline/insulin treated (D-BQ+saline+insulin treated): Same as above for Group 5, except BQ123 (1 mg/kg body weight) is used as a substitute for BMS-182874 (9 mg/kg).
(§4) Data are presented as mean±SEM. The significance of differences was estimated by one-way analysis of variance (intra group comparison with respect to base line data) and two-way analysis of variance (inter group comparison with respect to corresponding time points from each groups) followed by application of the Dunnett's Multiple Comparisons and Bonferroni test respectively. A P value of less than 0.05 was considered to be significant. The statistical analysis was processed with GraphPad Prism software Version 5.00.

rat model of DKA [2] = test: Arterial blood gases, electrolytes, lactate and hematocrit in diabetic ketoacidosis rats; settings: for arterial blood pH, Day 4 (pre-tx): instrument could not record pH below 6.80, mean±SEM
From the text: Arterial blood pH, pO2, pCO2, Na^+, K^+, lactate, and hematocrit were monitored prior to, at one hour, and at the end of treatment. Blood samples were drawn from the arterial cannula using blood gas sampling syringes (Innovative Medical Technologies, Inc. Leawood, Kans.) and analyzed using a GEM Premier 3000 unit (Instrument Laboratory, Lexington, Mass.). Blood samples were withdrawn from the femoral artery for baseline reading prior to start of treatment, after the first hour of treatment, and then at the end of the treatment (fifth hour of experiment).
as §1, §2, §3, §4

rat model of DKA [3] = test: Brain blood perfusion (Laser Doppler Flowmetry) in diabetic ketoacidosis rats; settings: day 4, FIG. 6, antagonist given with saline+insulin, result in words
Protocol: A burr hole was drilled into the rat skull approximately 2 millimeters (mm) to the left of midline, being careful not to disturb the brain tissue itself. Cerebrovascular perfusion was measured via a fiber optic probe (PF407) applied to the surface of the rat brain. The probe was connected to a Periflux PF2b 4000 Laser Doppler Flowmetry unit (Perimed, Stockholm, Sweden). The perfusion was determined by measuring the passage of red blood cells through the capillaries.
as §1, §2, §3, §4

rat model of DKA [4] = test: Cardiovascular parameters (MAP, pulse pressure, heart rate) in diabetic ketoacidosis rats
From the text: Rats were anaesthetized with urethane (1.5 g/kg ip.) and prepared for the determination of hemodynamic parameters (Gulati et al., 1997a; Gulati et al., 1997b). The anesthetized rats were shaved and immobilized to prepare for cannulation. A 2-3 centimeter (cm) incision was made above the femoral vein and artery and the vessels were dissected and cleaned. The left femoral vein was cannulated (PE-50 tubing, Clay Adams, Parsipanny, N.J.) and secured for drug administration. An ultra-miniature pressure transducer SPR-320 (2F Polyurethane), with a single pressure sensor side mounted at the tip (Millar Instruments, Houston, Tex.) was inserted in the left femoral artery to acquire the hemodynamic signals. Pressure transducer was connected to bridge amplifier (ML221 Bridge Amp; AD Instruments, Mountain View, Calif., USA) with Viking connector (AEC-10C) and the signals were continuously acquired at a sampling rate of 1000 S^−1 using Millar PowerLab 16/30 data acquisition system (AD Instruments, Mountain View, Calif., USA). Mean arterial pressure (MAP), heart rate (HR), and pulse pressure (PP) were determined and analyzed with LabChart-5.00 software program (Millar Instruments). After the experiment was completed, the animals were euthanized with a high dose of urethane (3 gm/kg).
as §1, §2, §3, §4

[5] = day 4, BMS-182874+saline+insulin group
[6] = day 4, compared to diabetic untreated rats, result in words
[7] = saline+insulin, alone or after bolus BMS-182874 9 mg/kg or BQ123 1 mg/kg

Cc1noc(NS(=O)(=O)c2cccc3c(N(C)C)cccc23)c1C [BMS-182874, (5-Dimethylamino)-N-(3,4-dimethyl-5-isoxazolyl)-1-naphthalene sulfonamide hydrochloride]
blood glucose, Day 4 (pre-tx) (rat model of DKA [1]; baseline before treatment on day 4, mean±SEM): 522 ± 18 mg/dL
effect of treatment on blood glucose (rat model of DKA [1]; day 4, result in words): did not significantly affect blood glucose
blood glucose, Day 4 (end of tx) (rat model of DKA [1]; saline+insulin infusion, alone or after bolus BMS-182874 9 mg/kg or BQ123 1 mg/kg, fifth hour, mean±SEM): 263 ± 32 mg/dL
blood glucose, Day 4 (1 hour of tx) (rat model of DKA [1]; saline+insulin infusion, alone or after bolus BMS-182874 9 mg/kg or BQ123 1 mg/kg, mean±SEM): 446 ± 36 mg/dL
arterial blood pH, Day 4 (pre-tx) (rat model of DKA [2]; baseline, hydrochloride): 6.82±0.02
arterial blood pH, Day 4 (pre-tx) (rat model of DKA [2]; baseline, listed as BMS, hydrochloride): 6.82 ± 0.02
arterial blood pCO2, Day 4 (pre-tx) (rat model of DKA [2]; baseline, mean±SEM): 28.71 ± 2.08 mmHg
arterial blood pO2, Day 4 (pre-tx) (rat model of DKA [2]; baseline, mean±SEM): 156.71 ± 7.11 mmHg
blood K+ level, Day 4 (pre-tx) (rat model of DKA [2]; baseline, mean±SEM): 4.21 ± 0.33 mmol/L
blood Na+ level, Day 4 (pre-tx) (rat model of DKA [2]; baseline, mean±SEM): 135.71 ± 2.06 mmol/L
blood hematocrit (Hct), Day 4 (pre-tx) (rat model of DKA [2]; baseline, mean±SEM): 45.71 ± 1.48%
blood K+ levels, after treatment (to) (rat model of DKA [2]; [5]): 2.75 ± 0.27 mM
blood K+ levels, before treatment (from) (rat model of DKA [2]; [5]): 4.21 ± 0.33 mM
effect of treatment on arterial blood pH (acidosis) (rat model of DKA [2]; day 4, antagonist given with saline+insulin, result in words): produced a significant improvement in arterial blood pH
effect of treatment on blood K+ levels (rat model of DKA [2]; [6]): significantly reduced the change in blood K^+ levels
effect of treatment on blood lactate levels (rat model of DKA [2]; [6]): significantly reduced the change in blood lactate levels
effect of treatment on hematocrit (rat model of DKA [2]; [6]): significantly reduced the hematocrit
arterial blood pCO2, Day 4 (1 hour of tx) (rat model of DKA [2]; [7]): 30.57 ± 1.94 mmHg
arterial blood pCO2, Day 4 (end of tx) (rat model of DKA [2]; [7]): 30.57 ± 2.23 mmHg
arterial blood pO2, Day 4 (1 hour of tx) (rat model of DKA [2]; [7]): 135.57 ± 6.37 mmHg
arterial blood pO2, Day 4 (end of tx) (rat model of DKA [2]; [7]): 143.85 ± 6.59 mmHg
blood K+ level, Day 4 (1 hour tx) (rat model of DKA [2]; [7]): 2.62 ± 0.29 mmol/L
blood K+ level, Day 4 (end of tx) (rat model of DKA [2]; [7]): 2.75 ± 0.27 mmol/L
blood Na+ level, Day 4 (1 hour of tx) (rat model of DKA [2]; [7]): 143.42 ± 1.84 mmol/L
blood Na+ level, Day 4 (end of tx) (rat model of DKA [2]; [7]): 146.14 ± 1.14 mmol/L
blood hematocrit (Hct), Day 4 (1 hour of tx) (rat model of DKA [2]; [7]): 33.28 ± 1.52 %
blood hematocrit (Hct), Day 4 (end of tx) (rat model of DKA [2]; [7]): 29.28 ± 2.22 %
arterial blood pH, Day 4 (1 hour of tx) (rat model of DKA [2]; saline+insulin, alone or after bolus BMS-182874 9 mg/kg or BQ123 1 mg/kg, instrument floor 6.80): 6.81 ± 0.01
arterial blood pH, Day 4 (end of tx) (rat model of DKA [2]; saline+insulin, alone or after bolus BMS-182874 9 mg/kg or BQ123 1 mg/kg, instrument floor 6.80, hydrochloride): 6.91±0.02
arterial blood pH, Day 4 (end of tx) (rat model of DKA [2]; saline+insulin, alone or after bolus BMS-182874 9 mg/kg or BQ123 1 mg/kg, instrument floor 6.80, listed as BMS, hydrochloride): 6.91 ± 0.02
effect on cerebral blood perfusion (rat model of DKA [3]; hydrochloride): significantly blocked; also recorded: prevented
effect on cerebral blood perfusion (rat model of DKA [3]; listed as BMS182874, hydrochloride): prevented an insulin induced increase in cerebral blood perfusion
effect on mean arterial pressure (rat model of DKA [4]; day 4, FIG. 3, antagonist given with saline+insulin, result in words): stabilized the arterial pressure
effect on pulse pressure (rat model of DKA [4]; day 4, FIG. 4, antagonist given with saline+insulin, result in words): stabilized the pulse pressure
effect on heart rate (rat model of DKA [4]; day 4, FIG. 5, antagonist given with saline+insulin, result in words): did not produce any decrease in heart rate compared to baseline
effect on insulin induced hypertension (rat model of DKA [4]; day 4, result in words): prevented development of insulin induced hypertension
